{
  "source": "patent US4816467A",
  "about": "“Heteroaryl 3-oxo-propanenitrile derivatives, pharmaceutical compositions and use” (Farmitalia Carlo Erba s.r.l, priority 1987, dated 1989)",
  "key": {"S. flexneri": {"tested_on": "S. flexneri", "assay": "Activity on S. flexneri infection in mice", "format": "in vivo", "settings": "infection 3 × LD50 i.p., controls 100", "procedure": "(§1) The compound of the present invention 2-cyano-3-(1,4-dihydro-1-phenyl-[1]-benzothiopyrano[4,3-c]pyrazol-3-yl)-3- oxo-N-phenyl-propanamide (internal code FCE 24578), for instance, was tested, according to the procedure described by Cleeland R., Grunberg E. 1986, 825-876, \"Antibiotics in Laboratory Medicine\" Lorian V. Editor (Williams and Wilkins), in the following models of infection: L. monocytogenes; D. pneumoniae; S. flexneri and P. aeruginosa; the last one being performed in cyclophosphamide immunosuppressed mice, according to Cryz S. J., Furer E., Germanier R., 1983, Infect. Imm., 39, 1067-1071.\n(§2) Activity of FCE 24578 on S. flexneri and D. pneumoniae\n(§3) Infection (3 × LD50) was given i.p.\n(§4) Treatments with FCE 24578 or vehicle were performed on -3, -2, -1 and 0"}, "D. pneumoniae": {"tested_on": "D. pneumoniae", "assay": "Activity on D. pneumoniae infection in mice", "format": "in vivo", "settings": "infection 3 × LD50 i.p.", "procedure": "as §1, §2, §3, §4\nMST = Mean Survival Time.\n*= significant for p < 0.01."}, "[1]": {"assay": "approximate acute toxicity (LD50) in the mouse, per os", "settings": "in vivo, po, single administration of increasing doses, measured on the seventh day", "procedure": "For example, the approximate acute toxicity (LD50) in the mouse of the compounds 2-cyano-3-(1,4-dihydro-1-phenyl-[1]-benzopyrano[4,3-c]pyrazol-3-yl)-3-oxo- N-phenyl-propanamide, and 2-cyano-3-(1,4-dihydro-1-phenyl-[1]-benzothiopyrano[4,3-c]pyrazol-3-yl)-3- oxo-N-phenyl-propanamide, determined per os with single administration of increasing doses and measured on the seventh day after the day of treatment, is higher than 800 mg/kg. Analogous toxicity data have been found for the other compounds of the invention."}, "L. monocytogenes": {"tested_on": "L. monocytogenes", "assay": "Activity on L. monocytogenes infection in mice", "format": "in vivo", "settings": "L. monocytogenes 1 × LD50 i.v., controls 75", "procedure": "as §1\nActivity of FCE 24578 on L. monocytogenes infection\nTreatments with FCE 2457B or vehicle were performed on -3, -2, -1 and 0\nday before the infection (1 × LD50) given i.v."}, "P. aeruginosa": {"tested_on": "P. aeruginosa", "assay": "Activity on P. aeruginosa infection in immunosuppressed mice", "format": "in vivo", "settings": "cyclophosphamide immunosuppressed; for % mortality 1 × LD50: P. aeruginosa 1 × LD50 i.v., controls 80; for % mortality 2 × LD50: P. aeruginosa 2 × LD50 i.v., controls 90", "procedure": "as §1\nActivity of FCE 24578 on P. aeruginosa infection\nin immunosuppressed mice\nCyclophosphamide (200 mg/kg) was administered i.p. on the fourth day\nThe treatments with FCE 24578 or vehicle were performed on -3, -2, -1 and\n0 day before the infection (2 × LD50 and 1 × LD50)"}},
  "data": [
    {"compound": "N#CC(C(=O)Nc1ccccc1)C(=O)c1nn(-c2ccccc2)c2c1CSc1ccccc1-2", "note": "(centres unmarked) [FCE 24578, 2-cyano-3-(1,4-dihydro-1-phenyl-[1]-benzothiopyrano[4,3-c]pyrazol-3-yl)-3-oxo-N-phenyl-propanamide]", "values": [
      {"measurement": "% mortality", "setting": "S. flexneri; 10 mg/kg i.p. on -3, -2, -1 and 0 day before infection", "result": 40, "unit": "%"},
      {"measurement": "% mortality", "setting": "S. flexneri; 50 mg/kg i.p. on -3, -2, -1 and 0 day before infection", "result": 10, "unit": "%"},
      {"measurement": "MST (Mean Survival Time)", "setting": "D. pneumoniae; 10 mg/kg i.p. on -3, -2, -1 and 0 day before infection, controls 3.1", "result": 4, "unit": "days"},
      {"measurement": "MST (Mean Survival Time)", "setting": "D. pneumoniae; 50 mg/kg i.p. on -3, -2, -1 and 0 day before infection, controls 3.1, * = significant for p < 0.01", "result": 5.7, "unit": "days"},
      {"measurement": "LD50 at 168 h", "setting": "[1]", "result": "> 800", "unit": "mg/kg"},
      {"measurement": "% mortality 1 × LD50", "setting": "L. monocytogenes; 10 mg/kg i.p.", "result": 12.5, "unit": "%"},
      {"measurement": "% mortality 1 × LD50", "setting": "L. monocytogenes; 50 mg/kg i.p.", "result": 0, "unit": "%"},
      {"measurement": "% mortality 1 × LD50", "setting": "L. monocytogenes; 50 mg/kg p.o.", "result": 37.5, "unit": "%"},
      {"measurement": "% mortality 1 × LD50", "setting": "L. monocytogenes; 250 mg/kg p.o.", "result": 25, "unit": "%"},
      {"measurement": "% mortality 1 × LD50", "setting": "P. aeruginosa; 10 mg/kg i.p.", "result": 0, "unit": "%"},
      {"measurement": "% mortality 1 × LD50", "setting": "P. aeruginosa; 50 mg/kg i.p.", "result": 0, "unit": "%"},
      {"measurement": "% mortality 2 × LD50", "setting": "P. aeruginosa; 10 mg/kg i.p.", "result": 0, "unit": "%"},
      {"measurement": "% mortality 2 × LD50", "setting": "P. aeruginosa; 50 mg/kg i.p.", "result": 0, "unit": "%"}
    ]},
    {"compound": "N#CC(C(=O)Nc1ccccc1)C(=O)c1nn(-c2ccccc2)c2c1COc1ccccc1-2", "note": "(centres unmarked) [FCE 25158, 2-cyano-3-(1,4-dihydro-1-phenyl-[1]-benzopyrano[4,3-c]pyrazol-3-yl)-3-oxo-N-phenyl-propanamide]", "values": [
      {"measurement": "LD50 at 168 h", "setting": "[1]", "result": "> 800", "unit": "mg/kg"}
    ]}
  ]
}
